Test results from patent US20050209151A1, “Use of peptides” (priority 1999, published 2005).
Where no end group is shown, it is not given here.

What was measured:
[1] = test system: β-endorphin concentration in blood; test: β-endorphin concentration in blood after intraventricular administration of PrRP-31; type: in vivo, Wistar rats; conditions: PrRP-31 1, 3 or 10 nmol intraventricular
Description: (§1) Adult male Wistar rats (body weight 350 to […] at surgery) were anesthetized with intraperitoneal administration of 50 mg/kg pentobarbital and immobilized in stereotaxic instruments. The incisor bar was set 3.3 mm below the interaural line. The skull was exposed, and a hole was drilled with a dental drill to implant a guide cannula AG-12 (inside diameter of 0.4 mm, outside diameter of 0.5 mm, by Eicom) in the third ventricle. Anchor screws were implanted in four surrounding locations. The tip of the stainless steel guide cannula AG-12 was inserted into position in the upper part of the third ventricle. The stereotaxic coordinates were AP: +7.1 mm, L: 0.0 mm, H: +2.0 mm, from the interaural line, according to the atlas of Paxinos and Watson (1986). The guide cannula was secured to the skull with instant adhesive, dental cement, and the anchor screws. A stainless-steel dummy cannula AD-12 (0.35 mm outside diameter, by Eicom) was then inserted into the guide cannula and secured with a cap nut (by Eicom). The rats were post-operatively housed in individual cages.
(§2) The animals were allowed to recover for about 1 week after the implantation of the guide cannulas, and blood samples were taken as they were allowed to move freely. The rats were then anesthetized with intraperitoneal administration of 50 mg/kg pentobarbital. […]

[2] = test system: ACTH concentration in blood; test: ACTH concentration in blood after intraventricular administration of PrRP-31; type: in vivo, Wistar rats; conditions: PrRP-31 1, 3 or 10 nmol intraventricular
Description: as §1, §2

[3] = plasma radioimmunoassay, 0-60 min

Q: How did the “time of peak β-endorphin concentration in blood after dosing” value [1] turn out when “PrRP-31: amide form of the peptide consisting of the amino acid sequence in SEQ ID NO. 32 (SRTHRHSMEIRTPDINPAWYASRGIRPVGRF-NH2)” was run?
A: 15 min

Q: What about the “β-endorphin concentration in blood compared to the control group” value [1, 3] of the same substance?
A: higher concentration-dependent increases

Q: What about the “time of peak ACTH concentration in blood after dosing” value [2] of the same substance?
A: 15 min

Q: And the “ACTH concentration in blood compared to the control group” value [2, 3]?
A: higher concentration-dependent increases
